Assays:
PDE4B2 = biological target: T1, PDE4B2 (Homo sapiens, UniProt Q07343); test: PDE assay, PDE4B2 short form (Experiment 1); assay type: biochemical; details: 100 μM test compound; mean % increase in counts over basal activity
T1 construct: the full length human PDE4B2 short isoform; made in house; cytosol fraction of cell lysate, prepared as described for PDE4D5
Experimental: One suitable method of detecting whether or not a compound is capable of serving as an activator of a PDE4 long form is using a two-step radio-assay procedure described in Experiment 1. In summary, the method involves incubating a PDE4 long form with a test small molecule activator, together with [^3H]-labelled cAMP to assess alterations in the breakdown of cAMP to the 5′-adenosine monophosphate (5′-AMP) product. A sample of the reaction mixture from such an incubation is subsequently treated with snake venom 5′-nucleotidase to allow conversion of the nucleotide [^3H]-labelled 5′-AMP to the uncharged nucleoside [^3H]-labelled adenosine, which can be separated and quantified to assess PDE4 activity and the effect of the test compound (Thompson, W. J. and Appleman, M. M. Biochemistry 10: 311-316, 1971, with some modifications as described in: Marchmont, R. J. and Houslay, M. D. Biochem J. 187: 381-92, 1980).
Experiment 1: Measurement of Modulation of Enzyme Activity by PDE4 Long Form Activators of the Present Invention Using Full-Length Human PDE4 Isoforms; Long Forms PDE4D5, PDE4C3, PDE4B1 and Short Form PDE4B2 • (Marchmont, R. J. and Houslay, M. D. Biochem. J. 187: 381-92, 1980)
Where stable cell lines were generated the clonal isolates were expanded to obtain cell lines that stably expressed the full-length human PDE4 long isoforms and the full length human PDE4B2 short isoform. These were called the HEK-PDE4D5, HEK-PDE4B1 and HEK-PDE4B2 cell lines, respectively.
PDE assays were performed in thin walled V-bottomed 96-well plates. The assays were performed at a final concentration of 10 mM Tris/5 mM MgCl2 plus PDE4D5 cell lysate cytosol fraction, containing over-expressed PDE4D5, with and without test compound. The lysate/compound mix were incubated together for 15 min at room temperature on an orbital shaker prior to addition of [^3H] cAMP (final concentration 1 μM [^3H] cAMP; Perkin Elmer) to a final volume of 50 μL per reaction. The reactions were then incubated for 10 minutes at 30° C., terminated by heating for 2 min at 95° C. and allowed to cool. Snake venom (12.5 μL of 1 mg/mL; Crotalus atrox, Sigma) was then added and the plates were agitated and incubated for a further 15 minutes at 30° C. Dowex ion exchange resin (Sigma, chloride form, 200-400 mesh; 200 μL; prepared as a 1:1 Dowex:water stock, thoroughly re-suspended and diluted 2:1 with ethanol) was then added to each well and the plates incubated for 15 min at room temperature on an orbital shaker ensuring sufficient agitation for resin suspension (550 RPM). The reaction mixture was then transferred to a 96 well filter plate (Millipore; 0.45 μm pore size) and filtered into a receiving 96-well plate to remove the dowex suspension. 30 μL of the filtered solution was then transferred to the wells of an Opti-plate (Perkin Elmer) 96 well assay plate and 120 μL of Microscint 40 scintillation fluid was added. The plate was then placed on an orbital shaker for 10 min at high speed (900 rpm) to mix the sample with scintillation fluid prior to quantitation using a plate based scintillation counter (Top-Count).
The % increase in counts in the presence of test compound at a particular concentration indicates the % increase in enzyme activity at that concentration.

m-IMCD3 cells = test: Inhibition of PGE2-stimulated in vitro cyst formation in 3D culture of m-IMCD3 cells (Experiment 4); assay type: cell-based, mouse; details: Mus musculus, mIMCD3, 144 h, 10 μM test compound, mean cyst area compared to 100% for (DMSO + PGE2) and 0% for DMSO control, read-out: % Cyst area* after incubation with 10 μM test compound
Experimental: HEK 293 and MDCK cells (Public Health England, Cell Culture Collections) were maintained in Dulbecco's Modified Eagle's Medium (DMEM) supplemented with 10% (v/v) fetal bovine serum (FBS) (Seralab), 2 mM L-glutamine and 100 U/ml penicillin streptomycin cocktail (ThermoFisher); termed complete media. Clonal HEK 293 cell lines were maintained in complete media supplemented with 0.6 mg/mL G418 (Enzo Life Sciences). Mouse inner medullary collecting duct (m-IMCD3) cells [American Type Culture Collection (ATCC)] were maintained in media consisting of DMEM/Hams F-12 50/50 Mix (DMEM F12; Corning) supplemented with penicillin streptomycin cocktail (100 U/ml) and FBS (10% v/v) (DMEM F12-10% FBS).
The mouse Inner Medullary Collecting Duct cell line (m-IMCD3) spontaneously forms cystic spheroids in 3D culture with a Type 1 collagen/Matrigel extracellular matrix. This process can be stimulated with agents which raise intracellular cAMP and is used as an in vitro model for the formation of cystic structures in the kidneys of patients with ADPKD.
Rat Collagen I (Fisher Scientific) is prepared on ice by neutralising with 1 M NaOH and diluting with a 2×volume of DMEM/F12+10% FBS. This is mixed 1:1.1 with ice cold Matrigel (Corning) for coating plates (coating mix), and 1:0.93 with Matrigel for cell plating (plating mix).
The assay is conducted in the wells of a 96-well plate culture dish using a total volume of 130 μL of collagen/Matrigel/DMEM F12-10% FBS suspension in growth media for each matrix plug per individual well. Initially, 30 μL of collagen/Matrigel/DMEM F12-10% FBS (coating mix) is added into the well of a 96 well plate and the collagen is set to a gel by incubating at 37° C. for at least 15 minutes. A second layer of 100 μL collagen/Matrigel suspension (plating mix) containing m-IMCD3 cells (2.75×10^6 m-IMCD3 cells per 96-well plate) is layered over the coating mix and the collagen/Matrigel/cell mix again set to a gel by incubating at 37° C. Cell cultures are maintained at 37° C. in an atmosphere of 5% CO2, 95% air.
Between 18 and 24 h after plating, test compound(s) as DMSO stock solutions [0.1% (v/v) final DMSO concentration] and PGE2 (100 nM final concentration) in DMEM F12-10% FBS are added in quadruplicate wells per condition. Media, together with the test compound and PGE2 are replenished after 2 or 3 days. After 6 days of culture z stack images of the wells are captured using the Nikon Eclipse Ti2-E microscope. Nikon General Analysis software is used to measure the following parameters in each well: the mean cyst area, the number of cysts, and the total cyst area.
PDE4 long form activators inhibited in vitro cyst formation in m-IMCD3 cells. Data are shown in FIG. 2 and Table 4 as mean cyst area (%), compared to 100% for (DMSO+PGE2) and 0% for DMSO control.

T1 sequence (Q07343 1-564 isoform Q07343-2): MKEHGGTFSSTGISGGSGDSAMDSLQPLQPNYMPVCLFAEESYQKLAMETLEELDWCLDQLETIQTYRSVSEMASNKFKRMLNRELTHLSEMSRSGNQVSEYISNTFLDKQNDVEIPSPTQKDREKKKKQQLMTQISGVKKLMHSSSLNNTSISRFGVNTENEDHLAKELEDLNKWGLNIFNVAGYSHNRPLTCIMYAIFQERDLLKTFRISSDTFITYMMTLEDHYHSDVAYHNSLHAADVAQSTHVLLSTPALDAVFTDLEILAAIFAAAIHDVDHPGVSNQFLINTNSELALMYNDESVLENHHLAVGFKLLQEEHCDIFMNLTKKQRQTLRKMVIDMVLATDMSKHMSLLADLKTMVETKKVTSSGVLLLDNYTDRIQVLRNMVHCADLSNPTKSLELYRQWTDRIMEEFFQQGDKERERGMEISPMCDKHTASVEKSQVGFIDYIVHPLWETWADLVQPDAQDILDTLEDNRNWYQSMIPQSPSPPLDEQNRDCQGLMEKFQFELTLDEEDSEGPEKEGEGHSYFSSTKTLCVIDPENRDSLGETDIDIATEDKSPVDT

Row | SMILES | activation at 100 µM (PDE4B2) [%] | activity at 10 µM (m-IMCD3 cells) [%]
1 | Cc1ccc(-c2nc3cc(C(=O)N[C@H]4CCOc5ccccc54)ccc3[nH]2)cn1 [Example 2, (S)—N-(chroman-4-yl)-2-(6-methylpyridin-3-yl)-1H-benzo[d]imidazole-5-carboxamide] | -39 | 17
2 | Cc1cncc(-c2nc3cc(C(=O)N[C@H]4CCOc5ccccc54)ccc3[nH]2)c1 [Example 4, (S)—N-(chroman-4-yl)-2-(5-methylpyridin-3-yl)-1H-benzo[d]imidazole-5-carboxamide] | -6 | 18
3 | Cc1cncc(-c2nc3ccc(C(=O)N[C@H]4CCOc5ccccc54)cc3n2C)c1 [Example 28, (S)—N-(chroman-4-yl)-1-methyl-2-(5-methylpyridin-3-yl)-1H-benzo[d]imidazole-6-carboxamide] | 5 | 8
4 | Cc1ccncc1-c1nc2cc(C(=O)N[C@H]3CCOc4ccccc43)ccn2n1 [Example 53, (S)—N-(chroman-4-yl)-2-(4-methylpyridin-3-yl)-[1,2,4]triazolo[1,5-a]pyridine-7-carboxamide] | -8 | 20

Reference: patent publication US20260007680A1, “Compounds and Their Use as PDE4 Activators” (Mironid Limited, priority 2022, published 2026)
